From PubChem BioAssay (NCI)
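Exposure lasted 48 hours, with cells grown in 96-well plates and compounds tested at five concentrations. GI50 = concentration required for 50% inhibition of growth. TGI is the concentration that stops growth completely.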

Legend:
Test in all cases: NCI-60 cell line screen, 48 h
[1] = system: 786-0 renal
[2] = system: A498 renal
[3] = system: ACHN renal
[4] = system: BT-549 breast
[5] = system: CAKI-1 renal
[6] = system: CCRF-CEM leukemia
[7] = system: COLO 205 colon
[8] = system: DU-145 prostate
[9] = system: EKVX NSCLC
[10] = system: HCC-2998 colon
[11] = system: HCT-116 colon
[12] = system: HCT-15 colon
[13] = system: HL-60(TB) leukemia
[14] = system: HOP-62 NSCLC
[15] = system: HOP-92 NSCLC
[16] = system: HS 578T breast
[17] = system: HT29 colon
[18] = system: IGROV1 ovarian
[19] = system: K-562 leukemia
[20] = system: KM12 colon
[21] = system: LOX IMVI melanoma
[22] = system: M14 melanoma
[23] = system: MCF7 breast
[24] = system: MDA-MB-231 breast
[25] = system: MDA-MB-435
[26] = system: MOLT-4 leukemia
[27] = system: NCI-H226 lung
[28] = system: NCI-H23 lung
[29] = system: NCI-H460 lung
[30] = system: NCI/ADR-RES ovarian
[31] = system: OVCAR-4 ovarian
[32] = system: OVCAR-8 ovarian
[33] = system: PC-3 prostate
[34] = system: RPMI-8226 leukemia
[35] = system: RXF 393 renal
[36] = system: SF-268 CNS
[37] = system: SF-295 CNS
[38] = system: SF-539 CNS
[39] = system: SK-MEL-2 melanoma
[40] = system: SK-MEL-28 melanoma
[41] = system: SK-MEL-5 melanoma
[42] = system: SK-OV-3 ovarian
[43] = system: SNB-19 CNS
[44] = system: SNB-75 CNS
[45] = system: SR leukemia
[46] = system: SW-620 colon
[47] = system: T-47D breast
[48] = system: TK-10 renal
[49] = system: U251 CNS
[50] = system: UACC-257 melanoma
[51] = system: UACC-62 melanoma
[52] = system: UO-31 renal
[53] = system: A549 NSCLC
[54] = system: MALME-3M melanoma
[55] = system: NCI-H522 lung
[56] = system: OVCAR-3 ovarian
[57] = system: OVCAR-5 ovarian
[58] = system: SN12C renal

## Cc1nc2cn3c(c2c(=O)[nH]1)CCCCC3
[1]
  TGI: > 100 µM
[2]
  TGI: > 100 µM
[3]
  TGI: > 100 µM
[4]
  TGI: > 100 µM
[5]
  TGI: > 100 µM
[6]
  TGI: > 100 µM
[7]
  TGI: > 100 µM
[8]
  TGI: > 100 µM
[9]
  TGI: > 100 µM
[10]
  TGI: > 100 µM
[11]
  TGI: > 100 µM
[12]
  TGI: > 100 µM
[13]
  TGI: > 100 µM
[14]
  TGI: > 100 µM
[15]
  TGI: > 100 µM
[16]
  TGI: > 100 µM
[17]
  TGI: > 100 µM
[18]
  TGI: > 100 µM
[19]
  TGI: > 100 µM
[20]
  TGI: > 100 µM
[21]
  TGI: > 100 µM
[22]
  TGI: > 100 µM
[23]
  TGI: > 100 µM
[24]
  TGI: 69.7 µM
[25]
  TGI: > 100 µM
[26]
  TGI: > 100 µM
[27]
  TGI: > 100 µM
[28]
  TGI: > 100 µM
[29]
  TGI: > 100 µM
[30]
  TGI: > 100 µM
[31]
  TGI: > 100 µM
[32]
  TGI: > 100 µM
[33]
  TGI: > 100 µM
[34]
  TGI: > 100 µM
[35]
  TGI: > 100 µM
[36]
  TGI: > 100 µM
[37]
  TGI: > 100 µM
[38]
  TGI: > 100 µM
[39]
  TGI: > 100 µM
[40]
  TGI: > 100 µM
[41]
  TGI: > 100 µM
[42]
  TGI: > 100 µM
[43]
  TGI: > 100 µM
[44]
  TGI: > 100 µM
[45]
  TGI: > 100 µM
[46]
  TGI: > 100 µM
[47]
  TGI: > 100 µM
[48]
  TGI: > 100 µM
[49]
  TGI: > 100 µM
[50]
  TGI: > 100 µM
[51]
  TGI: > 100 µM
[52]
  TGI: > 100 µM

## CCn1cnc(C[C@H](NC(=O)[C@H](CCCCNC(=O)Nc2cc(C(F)(F)F)cc(C(F)(F)F)c2)NC(=O)Nc2cc(C(F)(F)F)cc(C(F)(F)F)c2)C(=O)OC)c1
[1]
  GI50: 8.78 µM
  TGI: > 10 µM
[2]
  GI50: > 10 µM
  TGI: > 10 µM
[53]
  GI50: 3.97 µM
  TGI: > 10 µM
[3]
  GI50: 5.61 µM
  TGI: > 10 µM
[4]
  GI50: > 10 µM
  TGI: > 10 µM
[5]
  GI50: > 10 µM
  TGI: > 10 µM
[6]
  GI50: 3.04 µM
  TGI: > 10 µM
[7]
  GI50: > 10 µM
  TGI: > 10 µM
[8]
  GI50: 5.49 µM
  TGI: > 10 µM
[10]
  GI50: 3.98 µM
  TGI: > 10 µM
[11]
  GI50: 3.87 µM
  TGI: > 10 µM
[12]
  GI50: > 10 µM
  TGI: > 10 µM
[14]
  GI50: 9.32 µM
  TGI: > 10 µM
[15]
  GI50: 2.24 µM
  TGI: 9.81 µM
[16]
  GI50: 4.49 µM
  TGI: > 10 µM
[17]
  GI50: 3.97 µM
  TGI: > 10 µM
[18]
  GI50: 5.27 µM
  TGI: > 10 µM
[20]
  GI50: 4.41 µM
  TGI: > 10 µM
[21]
  GI50: 3.56 µM
  TGI: > 10 µM
[22]
  GI50: 6.29 µM
  TGI: > 10 µM
[54]
  GI50: > 10 µM
  TGI: > 10 µM
[23]
  GI50: 3.51 µM
  TGI: > 10 µM
[24]
  GI50: 2.58 µM
  TGI: 6.37 µM
[25]
  GI50: 8.46 µM
  TGI: > 10 µM
[27]
  GI50: > 10 µM
  TGI: > 10 µM
[28]
  GI50: 5.98 µM
  TGI: > 10 µM
[29]
  GI50: 3.43 µM
  TGI: > 10 µM
[55]
  GI50: 5.19 µM
  TGI: > 10 µM
[30]
  GI50: > 10 µM
  TGI: > 10 µM
[56]
  GI50: 3.32 µM
  TGI: > 10 µM
[31]
  GI50: 3.51 µM
  TGI: > 10 µM
[57]
  GI50: > 10 µM
  TGI: > 10 µM
[32]
  GI50: 5.02 µM
  TGI: > 10 µM
[33]
  GI50: 2.82 µM
  TGI: > 10 µM
[34]
  GI50: 3.08 µM
  TGI: > 10 µM
[35]
  GI50: 4.24 µM
  TGI: > 10 µM
[36]
  GI50: 6.04 µM
  TGI: > 10 µM
[37]
  GI50: > 10 µM
  TGI: > 10 µM
[38]
  GI50: > 10 µM
  TGI: > 10 µM
[39]
  GI50: > 10 µM
  TGI: > 10 µM
[40]
  GI50: 6.62 µM
  TGI: > 10 µM
[41]
  GI50: 7.75 µM
  TGI: > 10 µM
[42]
  GI50: > 10 µM
  TGI: > 10 µM
[58]
  GI50: 5.69 µM
  TGI: > 10 µM
[43]
  GI50: 5.1 µM
  TGI: > 10 µM
[44]
  GI50: 1.37 µM
  TGI: > 10 µM
[46]
  GI50: 6.86 µM
  TGI: > 10 µM
[47]
  GI50: 4.83 µM
  TGI: > 10 µM
[48]
  GI50: 7.46 µM
  TGI: > 10 µM
[49]
  GI50: 3.8 µM
  TGI: > 10 µM
[50]
  GI50: > 10 µM
  TGI: > 10 µM
[51]
  GI50: > 10 µM
  TGI: > 10 µM
[52]
  GI50: > 10 µM
  TGI: > 10 µM
